Where two headings read alike, the source gives them in different places.
Target: T1, human mAChR M4 (Homo sapiens, UniProt P08173)
T1 construct: expressed in transfected cells
T1 sequence (P08173 1-479): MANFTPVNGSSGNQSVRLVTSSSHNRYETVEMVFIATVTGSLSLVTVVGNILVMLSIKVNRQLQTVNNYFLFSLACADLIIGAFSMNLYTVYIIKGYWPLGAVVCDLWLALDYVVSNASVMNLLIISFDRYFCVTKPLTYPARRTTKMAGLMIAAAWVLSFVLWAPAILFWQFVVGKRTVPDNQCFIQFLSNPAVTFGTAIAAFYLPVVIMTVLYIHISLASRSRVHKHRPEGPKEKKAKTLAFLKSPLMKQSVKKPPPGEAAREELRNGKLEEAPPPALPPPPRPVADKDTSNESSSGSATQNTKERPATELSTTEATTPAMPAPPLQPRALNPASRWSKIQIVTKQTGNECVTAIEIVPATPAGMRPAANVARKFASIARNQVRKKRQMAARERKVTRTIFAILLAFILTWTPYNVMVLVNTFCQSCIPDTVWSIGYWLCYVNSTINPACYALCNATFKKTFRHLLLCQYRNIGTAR
Assay: mAChR M4 cell-based functional assay (calcium mobilization, CHO-K1 hM4-Gqi5 cells)
Details: for Emax at 30 µM: CHO-K1, % ACh maximum at 30 μM, human M4; for EC50: increase in the EC20 acetylcholine response, CHO-K1 hM4-Gqi5 cells; for Emax: CHO-K1
Summary of the method: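 Fluorescent calcium read-out (Fluo-4 AM, FDSS, 1 Hz) in hM4-Gqi5 CHO-K1 cells, 11-point 1:3 compound series. Agonism scored on compound addition, PAM activity as increase of the 144 s EC20 acetylcholine response, antagonism as decrease of the 230 s EC80 response; four-parameter logistic fits give EC50 and Emax.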

[1] = positive allosteric modulator activity, read-out: Human M4 EC50

Row | Compound | Emax at 30 µM [%] | EC50 [1] [nM] | Emax [%] | EC50 (Human M4 EC50, positive allosteric modulator activity) [nM]
1 | Cc1cc(C(=O)NCc2cncc(Br)c2)cnc1N1CCc2ncccc2C1 [compound 139, N-[(5-bromo-3-pyridyl)methyl]-6-(7,8-dihydro-5H-1,6-naphthyridin-6-yl)-5-methyl-pyridine-3-carboxamide] | 70 | 1360 |  | 
2 | Cc1cc(C(=O)N2CCCn3nccc32)nnc1N1CCc2ncc(C(F)(F)F)cc2C1 [Example 503, (6,7-dihydropyrazolo[1,5-a]pyrimidin-4(5H)-yl)(5-methyl-6-(3-(trifluoromethyl)-7,8-dihydro-1,6-naphthyridin-6(5H)-yl)pyridazin-3-yl)methanone] | 103 | 4080 |  | 
3 | Cc1cc(C#N)nnc1N1CCc2ncc(Oc3cc(F)ccc3F)cc2C1 [Example 357, 6-(3-(2,5-difluorophenoxy)-7,8-dihydro-1,6-naphthyridin-6(5H)-yl)-5-methylpyridazine-3-carbonitrile] | 84 | 127 |  | 
4 | Cc1cc(C(=O)NCc2cncs2)cnc1N1CCc2ncc(-c3ccc(N(C)C)nc3)cc2C1 [Example 485, 6-(3-(6-(dimethylamino)pyridin-3-yl)-7,8-dihydro-1,6-naphthyridin-6(5H)-yl)-5-methyl-N-(thiazol-5-ylmethyl)nicotinamide] | 79 | 247 |  | 
5 | Cc1cc(C(=O)N2CC(C(F)F)C2)nnc1N1CCc2ncc(N3CCCn4nccc43)cc2C1 [Example 524, (3-(difluoromethyl)azetidin-1-yl)(6-(3-(6,7-dihydropyrazolo[1,5-a]pyrimidin-4(5H)-yl)-7,8-dihydro-1,6-naphthyridin-6(5H)-yl)-5-methylpyridazin-3-yl)methanone] | 93 | 18 |  | 
6 | Cc1c(C#N)nnc(N2CCc3ncc(-c4cccnc4C(F)(F)F)cc3C2)c1C [compound 50, 4,5-dimethyl-6-[3-[2-(trifluoromethyl)-3-pyridyl]-7,8-dihydro-5H-1,6-naphthyridin-6-yl]pyridazine-3-carbonitrile] | 68 | 1790 |  | 
7 | Cc1nc(Cl)c(C)c(N2Cc3cc([N+](=O)[O-])cnc3C(C)C2)n1 (stereo not drawn) [compound 222, 6-(6-chloro-2,5-dimethylpyrimidin-4-yl)-8-methyl-3-nitro-5,6,7,8-tetrahydro-1,6-naphthyridine] | 91 | 333 |  | 
8 | Cc1cc(C(=O)NCc2ccncc2)nnc1N1CCc2ncc(CC(F)(F)F)cc2C1 [Example 581, 5-methyl-N-(pyridin-4-ylmethyl)-6-(3-(2,2,2-trifluoroethyl)-7,8-dihydro-1,6-naphthyridin-6(5H)-yl)pyridazine-3-carboxamide] | 96 | 60 |  | 
9 | Cc1nn(C)cc1-c1cnc2c(c1)CN(c1nc(NCC(C)(C)O)nc(C)c1C)CC2 [compound 274, 1-((4-(3-(1,3-dimethyl-1H-pyrazol-4-yl)-7,8-dihydro-1,6-naphthyridin-6(5H)-yl)-5,6-dimethylpyrimidin-2-yl)amino)-2-methylpropan-2-ol] | 87 | 735 |  | 
10 | Cc1cnc2c(c1)CN(c1ncc(C#N)cc1C)CC2 [compound 179, 5-methyl-6-(3-methyl-7,8-dihydro-5H-1,6-naphthyridin-6-yl)pyridine-3-carbonitrile] |  |  | 98 | 100
11 | COC(=O)c1cnc(N2CCc3ncccc3C2)c(C)c1 [compound 71, methyl 6-(7,8-dihydro-5H-1,6-naphthyridin-6-yl)-5-methyl-pyridine-3-carboxylate] |  | 3380 | 102 | 
12 | Cc1cnccc1CNC(=O)c1cnc(N2CCc3ncccc3C2)c(C)c1 [compound 130, 6-(7,8-dihydro-5H-1,6-naphthyridin-6-yl)-5-methyl-N-[(3-methyl-4-pyridyl)methyl]pyridine-3-carboxamide] | 82 | 507 |  | 
13 | Cc1cc(C#N)nnc1N1CCc2ncc(CC(F)(F)F)cc2C1 [Example 422, 5-methyl-6-(3-(2,2,2-trifluoroethyl)-7,8-dihydro-1,6-naphthyridin-6(5H)-yl)pyridazine-3-carbonitrile] | 94 | 523 |  | 

Further lines, with some results ahead:

Row | Emax at 30 µM [%] | EC50 [1] [nM] | Compound | Emax [%] | EC50 (Human M4 EC50, positive allosteric modulator activity) [nM]
14 | 96 | 88 | Cc1cc(C#N)cnc1N1CCc2ncc(-c3ccns3)cc2C1 [compound 291, 6-(3-(isothiazol-5-yl)-7,8-dihydro-1,6-naphthyridin-6(5H)-yl)-5-methylnicotinonitrile] |  | 
15 | 115 | 116 | [2H]C1([2H])N(c2cnc3c(c2)CN(c2nnc(C#N)cc2C)CC3)c2ccnn2C([2H])([2H])C1([2H])[2H] [Example 416, 6-(3-(6,7-dihydropyrazolo[1,5-a]pyrimidin-4(5H)-yl-5,5,6,6,7,7-d6)-7,8-dihydro-1,6-naphthyridin-6(5H)-yl)-5-methylpyridazine-3-carbonitrile] |  | 
16 | 63 | 2670 | Cc1cc(C#N)cnc1N1CCc2ncc(OCCOc3ccccc3)cc2C1 [Example 427, 5-methyl-6-(3-(2-phenoxyethoxy)-7,8-dihydro-1,6-naphthyridin-6(5H)-yl)nicotinonitrile] |  | 
17 | 87 | 65 | Cc1cc(C#N)nnc1N1CCc2ncc(Oc3ccccc3F)cc2C1 [Example 396, 6-(3-(2-fluorophenoxy)-7,8-dihydro-1,6-naphthyridin-6(5H)-yl)-5-methylpyridazine-3-carbonitrile] |  | 
18 | 108 | 138 | Cc1ccc(-c2cnc3c(c2)CN(c2ncc(C#N)cc2C)CC3)cn1 [compound 187, 5-methyl-6-[3-(6-methyl-3-pyridyl)-7,8-dihydro-5H-1,6-naphthyridin-6-yl]pyridine-3-carbonitrile] |  | 
19 | 92 | 995 | Cc1ccc(F)c(Nc2cnc3c(c2)CN(c2ncc(C#N)cc2C)CC3)c1 [compound 115, 6-[3-(2-fluoro-5-methyl-anilino)-7,8-dihydro-5H-1,6-naphthyridin-6-yl]-5-methyl-pyridine-3-carbonitrile] |  | 
20 | 120 | 56 | Cc1cc(C(=O)N2CC(C)C2)nnc1N1CCc2ncc(N3CCCn4nccc43)cc2C1 [Example 549, (6-(3-(6,7-dihydropyrazolo[1,5-a]pyrimidin-4(5H)-yl)-7,8-dihydro-1,6-naphthyridin-6(5H)-yl)-5-methylpyridazin-3-yl)(3-methylazetidin-1-yl)methanone] |  | 
21 | 86 | 341 | Cc1cc(C#N)cnc1N1CCc2ncc(-n3nccc3C)cc2C1 [Example 345, 5-methyl-6-(3-(5-methyl-1H-pyrazol-1-yl)-7,8-dihydro-1,6-naphthyridin-6(5H)-yl)nicotinonitrile] |  | 
22 | 90 | 330 | CCCn1cc(-c2cnc3c(c2)CN(c2ncc(C#N)cc2C)CC3)cn1 [compound 108, 5-methyl-6-[3-(1-propylpyrazol-4-yl)-7,8-dihydro-5H-1,6-naphthyridin-6-yl]pyridine-3-carbonitrile] |  | 
23 | 71 | 861 | Cc1cc(C#N)cnc1N1CCc2ncc(N3CCOC(c4ccccn4)C3)cc2C1 (stereo not drawn) [Example 387, 5-methyl-6-(3-(2-(pyridin-2-yl)morpholino)-7,8-dihydro-1,6-naphthyridin-6(5H)-yl)nicotinonitrile] |  | 
24 | 49 | 1490 | COc1cc(-c2cnc3c(c2)CN(c2ncc(C#N)cc2C)CC3)c(Cl)cn1 [Example 341, 6-(3-(5-chloro-2-methoxypyridin-4-yl)-7,8-dihydro-1,6-naphthyridin-6(5H)-yl)-5-methylnicotinonitrile] |  | 

Reference: patent publication US20250230155A1 (Vanderbilt University, priority 2021, published 2025)
